Here are results for four molecules from patent publication US8951529B2, “Methods of using small compounds to enhance myeloid derived suppressor cell function for treating autoimmune diseases” (Icahn School of Medicine at Mount Sinai, priority 2009, dated 2015).

One experiment relates to Gr-1+/CD115+ MDSCs. The experiment is described as follows: HA-TCR T-cell proliferation with MDSCs and MAP kinase activator or inhibitors. In kind it is cell-based, mouse. The following applies: HA peptide, three days, viable T cell count, FIG. 13A. As to the method:
To determine whether MAP kinase is involved in MDSC-mediated T cell suppression and Treg activation, monocytic MDSCs (Gr-1+/CD115+) were purified from spleen of tumor bearing mice and the suppressive function was evaluated. Purified T cells from HA-TCR transgenic T cells were cultured in the presence or absence of irradiated purified Gr-1+/CD115+ MDSCs from tumor-bearing mice, irradiated splenocytes from naïve mice as antigen presenting cells, anisomycin, various inhibitors, and HA peptide (0.5 μg/m1). Three days later, T cell proliferation was assessed by counting viable (trypan blue negative) total T cell number. Proliferation percentages were calculated by the number of experimental group divided by the number of T cell without MDSC, anisomycin or inhibitors (SB, PD). *p<0.05 by ANOVA t-test (FIG. 13A).

The next experiment has as its system MDSCs. The experiment is described as follows: Foxp3 RT-PCR of MDSC-activated T regulatory cells with MAP kinase activator or inhibitors. The format is cell-based, mouse. The following applies: FIG. 13B. As to the method:
The expression of Foxp3 and actin (as internal control) was determined by RT-PCR in MDSC-activated T regulatory cells in the presence of p38 MAP kinase activator, anisomycin, p38 MAP kinase inhibitor, SB, and Erk inhibitor, PD (FIG. 13B).

A further experiment has as its system DSS-induced colitis. As to the kind of experiment: DSS-induced colitis in vivo model. Also on record: species or system C57BL/6 mice. Particulars: day 11, in comparison with naive healthy mice, FIG. 5C. The text has this: In certain aspects, the invention is related to the treatment of IBDs. Mouse models of IBD are well known in the art, and may be used to model human IBDs. For example, dextran sodium sulfate (DSS) may be administered to mice to induce IBD. In this model, mice are fed with water containing 3.5% DSS from day 0 to day 11. Following treatment, mice develop colitis. The severity of colitis is quantified (assigned a clinical score) by assessing stool consistency, bleeding, and weight loss, which ranges from 0 (healthy) to 4 (maximal severity). Histologically, DSS produces submucosal erosions, ulceration, inflammatory cell infiltration and crypt abscess as well as epithelioglandular hyperplasia. […] [Kawada et al., 2007, World J. Gastroenterol. 13: 5581-5593; Okayasu et al., 1990, Gastroenterology 98:694-702]
For adoptive transfer of MDSCs, 5×10^6 purified MDSCs suspended in PBS were administered by intravenous infusion at day 0 and day 7.
Mice were left untreated or treated with sorted MDSCs (5×10^6 cells/mouse) alone or in combination with GA and/or SP600125 (Sigma-Aldrich), on the day of disease induction. […] The severity of colitis was quantitated as a clinical score by assessing stool consistency, bleeding, and weight loss, which ranges from 0 (healthy) to 4 (maximal severity). The clinical score (weight loss, stool consistency, and bleeding) of treated mice was assessed in a double-blind fashion.
On day 11 post-IBD induction, colon tissues from treated mice were removed, fixed in 3% formaldehyde, sectioned, and stained with H&E staining to determine the pathology score of colitis. To reflect the general condition of the mice, a disease activity index (DAI) was determined by an investigator blinded to the protocol by scoring the extent of body weight loss, stool guaiac positivity or gross bleeding, and stool consistency according to the method described in Murthy et al. (1993) “Treatment of Dextran Sulfate Sodium-Induced Murine Colitis by Intracolonic Cyclosporin,” Digest. […] Stool consistency and the degree of blood in stool were evaluated on the day when animals were killed. […]

Consider `COc1cccc(-c2cc(=O)c3ccccc3o2)c1N` [PD98059, 2-(2-Amino-3-methoxyphenyl)-4H-1-benzopyran-4-one], for which the “MDSC suppression of HA-TCR T-cell proliferation” value in the experiment on Gr-1+/CD115+ MDSCs is recorded as “not reverted or enhanced”. Also, the “Treg induction by MDSCs as assessed by Foxp3 expression by RT-PCR” value in the experiment on MDSCs was “not significantly different”. The corresponding values for `C[S+]([O-])c1ccc(-c2nc(-c3ccc(F)cc3)c(-c3ccncc3)[nH]2)cc1` (stereo not shown) [SB203580, 4-(4-Fluorophenyl)-2-(4-methylsulfinylphenyl)-5-(4-pyridyl)-1H-imidazole] are “not reverted or enhanced” and “not significantly different”. In the case of `Oc1c2ccccc2c2c3c(cccc13)N=N2` [SP600125, 1,9-Pyrazoloanthrone], the “decrease in colonic length” value in the experiment on DSS-induced colitis came out at 51.6%. `COc1ccc(C[C@H]2NC[C@H](O)[C@H]2OC(C)=O)cc1` [anisomycin]: the “MDSC suppression of HA-TCR T-cell proliferation” value in the experiment with Gr-1+/CD115+ MDSCs was “reverted the suppressive activity”. The “Treg induction by MDSCs as assessed by Foxp3 expression by RT-PCR” value with MDSCs is “decreased Treg induction”.
